Each structure is given as a SMILES string. Values after ≈ are worked out from the molar mass of the structure shown.

This assay relates to Mycobacterium tuberculosis. As to the kind of experiment: Antitubercular activity against Mycobacterium tuberculosis H37Rv after 2 weeks. In kind it is functional. The conditions noted are these: 336 h.
Molecule `COc1c2ccccc2nc2occc12` [DICTAMNINE] had an MIC of 30 µg/mL (≈ 151 µM).

For `COc1cc(CCCO)cc2ccoc12`, inhibition of growth (MIC) required 50 µg/mL (≈ 242 µM). In the case of `COc1cc(/C=C/C=O)cc2c1O[C@H](C(C)(C)O)C2` [WUTAIENSAL], the minimal inhibitory concentration (MIC) amounted to 30 µg/mL (≈ 114 µM).

`CC(C)=CCOc1ccc(C(=O)O)cc1` [VALENCIC ACID]: the MIC came out at 45 µg/mL (≈ 218 µM). For `COc1c2ccoc2nc2c(OC)cccc12` [GAMMA-FAGARINE] the value was 30 µg/mL (≈ 131 µM). Under `COC(=O)c1cc2c(c(OC)c1)O[C@H](C(C)(C)O)C2` stands 35 µg/mL (≈ 131 µM); under `COC(=O)/C=C/c1ccc2c(c1)C[C@@H](C(C)(C)O)O2` [METHYL DEMETHOXYWUTAIENSATE], 50 µg/mL (≈ 191 µM).

`CC[C@@H](CO)NCCN[C@@H](CC)CO` [ETHAMBUTOL] registered an MIC of 6.25 µg/mL (≈ 30.6 µM). This MIC lies about 8-fold lower than the previous one. For `COc1cc(/C=C/C=O)cc2ccoc12` the value was 35 µg/mL (≈ 173 µM).

One may read the MIC as the lowest concentration found to suppress growth. Higher therefore signals weaker potency.

The values are drawn from ChEMBL document CHEMBL1155034, “Constituents of the root wood of Zanthoxylum wutaiense with antitubercular activity” (2008).
